# Patent publication US20060040870A1, “Enhancement of apoptosis by caspase-9 inhibitors” (priority 2004, published 2006)
# The star is where a group is joined. Cbz = O=C(OCc1ccccc1)*; CH2F = FC*
# Assays:
# [1] = tested on: BLIN-1 cells; experiment: Apoptosis by Annexin V staining and flow cytometry, BLIN-1; type: cell-based, human; settings: BLIN-1, 50 μM, 18 hours
# Method: Flow cytometry. Quantitation of apoptotic events was conducted using a FACS Calibur (BD Immunocytometry Systems). All analyses were conducted on cells with lymphoid light scatter characteristics (i.e., low to medium forward scatter and low 90° side scatter).
# iii. Annexin V. FITC-labeled Annexin V (BD Pharmingen, San Diego, Calif.) was used to detect external phosphatidylserine residues appearing on the external surface of early apoptotic cells (Koopman Blood. 1994;84:1415-1420). Cells were stained according to the manufacturers recommendations.
# General experimental strategy. BLIN cell lines were removed from fibroblast monolayers, washed once and resuspended to 7.5×10^5/ml in X-VIVO 10. Two hundred μL of resuspended cells were added to 96-well flat-bottom microtiter plates (ISC Bioexpress, Kaysville, Vt.), followed by 0.5-1.0 μL of caspase inhibitors in DMSO. An identical volume of DMSO alone was added to separate wells as a vehicle control. This final DMSO concentration of 0.25-0.5% vol/vol had no adverse affect on any of the BLIN cell lines. At the indicated times the entire content of individual wells was harvested and stained in the fluorescent protocols described above.
# The inventors carried out experiments to test the influence of specific amino acid substitutions on the proapoptotic activity Z-LEHD-fmk. […]
# [2] = tested on: CCRF-CEM T lymphoma cell line; experiment: Apoptosis by Annexin V staining and flow cytometry, CCRF-CEM; type: cell-based; settings: 50 μM, 18 hours
# Method: (§1) FIG. 4 is a pair of graphs showing the effect of […] on various cell lines, as determined by Annexin V staining and flow cytometry. The cells included the B-cell precursor ALL cell lines […], and NALM-6, the RAMOS, RAJI, and DAUDI Burkitt lymphoma cell lines, the CCRF-CEM, JURKAT, and H9 T lymphoma cell lines, the K-562 erythroleukemia cell line, and resting or activated (i.e., CD3/CD28 cross-linked) normal human T cells. […] Flow cytometry. Quantitation of apoptotic events was conducted using a FACS Calibur (BD Immunocytometry Systems). All analyses were conducted on cells with lymphoid light scatter characteristics (i.e., low to medium forward scatter and low 90° side scatter). iii. Annexin V. […] Cells were stained according to the manufacturers recommendations.
# [3] = tested on: H9 T lymphoma cell line; experiment: Apoptosis by Annexin V staining and flow cytometry, H9; type: cell-based; settings: H9, 50 μM, 18 hours
# Method: as §1
# [4] = tested on: BLIN-3 cells; experiment: Loss of mitochondrial transmembrane potential (TMRE) and YO-PRO permeability in BLIN-3; type: cell-based, human; settings: BLIN-3, FIG. 2
# Method: Numbers in the histograms indicate the percentage of PI^- cells that underwent a loss of Δψm. Numbers in the contour plots indicate the percentage of Annexin V^+/PI^- cells. […] Numbers in the contour plots indicate the percentage of YO^- PRO^+/PI^- cells. Numbers in the histograms indicate the percentage of PI^- cells that underwent a loss of Δψm. Flow cytometry. Quantitation of apoptotic events was conducted using a FACS Calibur (BD Immunocytometry Systems). All analyses were conducted on cells with lymphoid light scatter characteristics (i.e., low to medium forward scatter and low 90° side scatter). i. Mitochondrial transmembrane potential (Δψm). The cationic lipophilic fluorescent dye tetramethylrhodamine, ethyl ester, perchlorate (TMRE) was purchased from Molecular Probes, Inc. (Eugene, Oreg.). TMRE has a high degree of membrane permeability and accumulates into mitochondria in accord with the Nernstian equation (Farkas Biophys J. 1989;56:1053-1069). Cells were washed once and re-suspended to 0.5-1.0×10^6/ml in X-VIVO 10. TMRE was added to a final concentration of 50 nM and the cells were incubated in the dark at 37° C. for 15 minutes. […] ii. YO-[…]. The green fluorescent DNA intercalant dye YO-PRO-1 (Idziorek J Immunol Methods. 1995;185:249-258) was purchased from Molecular Probes as the Vybrant Apoptosis Assay Kit #4. […]
# [5] = tested on: PARP (caspase-3/caspase-7 substrate); experiment: Western blotting of PARP cleavage in BLIN-3 and BLIN-4L; type: cell-based, human; settings: overnight incubation of BLIN-3 and BLIN-4L cells, 50 μM
# Method: Western blotting. This method was conducted essentially as previously described.^20 The antibodies used were: rabbit anti-caspase-2 (catalog # sc-625, Santa Cruz Biotechnology Inc., Santa Cruz, Calif.), rabbit anti-caspase-3 (catalog # 9661, Upstate Cell Signaling Solutions, Waltham, Mass.), rabbit anti-caspase-6 (catalog # 9761, Upstate), rabbit anti-caspase-9 (catalog # 9502, Upstate), mouse anti-PARP (catalog # 556494, Pharmingen), and rabbit anti-Bid (catalog # AF846, R&D Systems). The antibodies to caspase-2 and caspase-9 were generated to the procaspase isoforms, whereas the antibodies to caspase-3 and caspase-6 were generated to cleavage products.
# As expected, inclusion of 50 μM PCi had no effect. The degree of PARP cleavage in the presence of C9i (greater in BLIN-3 than BLIN-4L) correlated with the percentage of Annexin V+ cells (FIG. 3).
substance,measurement,setting,value
Z-LEHD-fmk (Cbz-LEHD-CH2F; SMILES CC(C)C[C@H](NC(=O)OCc1ccccc1)C(=O)N[C@@H](CCC(=O)O)C(=O)N[C@@H](Cc1c[nH]cn1)C(=O)N[C@@H](CC(=O)O)C(=O)CF) [C9i],sensitivity (fold-increase in Annexin V+ cells vs DMSO),[1],sensitive
same,sensitivity (fold-increase in Annexin V+ cells vs DMSO),[2],extremely sensitive
same,sensitivity (fold-increase in Annexin V+ cells vs DMSO),[3],insensitive
same,"enhancement of apoptosis (YO-PRO+/PI− cells, reduced TMRE staining) versus concentration",[4],dose-dependent
same,cleavage of the caspase-3/caspase-7 substrate PARP,[5],led to cleavage
